Measurements from article PMC10218704, “A Novel Blood–Brain Barrier-Penetrating and Vascular-Targeting Chimeric Peptide Inhibits Glioma Angiogenesis” (International Journal of Molecular Sciences, 2023).
Ends that are not written are not given here.

Key:
[1] = test system: PLC-γ; assay: Western blot, phosphorylation of PLC-γ; assay type: cell-based, human; settings: 320 μmol/L, 90 min, VEGF-A165 30 ng/mL, HUVECs, vs control, AT7, TAT, n = 3
Protocol: (§1) For Western blotting analysis, HUVECs were seeded into 6-well culture plates at 3 × 10^5 cells/well and incubated overnight. […] Two control groups (F-12K medium in the absence or presence of VEGF-A165) were set. The cells were washed with cold PBS and lysed with lysis buffer (protease and phosphatase inhibitors) on the ice for 30 min, and then centrifuged at 4 °C for 15 min at 14,000 r/min. The supernatant was collected, and its total protein concentration was determined by the BCA protein assay kit. Equal amounts of proteins were separated by 10% SDS-PAGE gels and transferred to polyvinylidene difluoride (PVDF) membranes. After blocking with 5% non-fat milk for 1 h, the membranes were incubated with specific antibodies at 4 °C overnight. Then, the membranes were washed with TBST (Tris-Buffered Saline with 0.1% Tween 20) and incubated with horseradish peroxidase (HRP)-conjugated secondary antibody for 1 h at room temperature. The proteins on the membranes were visualized with enhanced chemiluminescence agents.

[2] = test system: SRC; assay: Western blot, phosphorylation of SRC; assay type: cell-based, human; settings: 320 μmol/L, 90 min, VEGF-A165 30 ng/mL, HUVECs, vs control, AT7, TAT, n = 3
Protocol: as §1

[3] = test system: HUVECs; assay: Hoechst 33,258 staining (apoptosis); assay type: cell-based, human; settings: 320 μmol/L; 24 h
Protocol: HUVECs were seeded into 6-well culture plates (3 × 10^5 cells/well). […] After discarding the supernatant and washing with cold PBS, the cells were fixed in 4% paraformaldehyde and stained with Hoechst 33,258 for 10 min. Then, the cells were washed with cold PBS and observed using an inverted fluorescence microscope.

[4] = compared with TAT or AT7 alone; cited from earlier work
Source text: Intracranial delivery of therapeutic agents is primarily hindered by the BBB [24]. The intercellular tight junction caused by the BBB restricts the passive diffusion of almost all large-molecule and more than 98% of small-molecule drugs from peripheral blood circulation to the brain tissue. TAT ([…]), one of the most promising cationic cell-penetrating peptides (CPPs), has been widely applied in drug delivery due to its high efficiency to facilitate the tissue penetration and internalization of cargos and break through a variety of biological barriers, such as cell membrane ...

[5] = test system: VEGF-induced rabbit corneal angiogenesis; settings: cited from earlier work
Source text: Most peptides and proteins are usually functional and efficacious signaling molecules that naturally exist or are synthesized by artificial methods. Compared with proteins, peptides have higher tissue permeability, protease hydrolysis tolerability, and lower production costs. Furthermore, the pharmacological functions of peptides are easier to be improved by modification strategies, whereas their intrinsic properties are rarely affected. […] ATWLPPR (AT7), which was identified by a mutated phage lib ...

Compound	phosphorylation level of PLC-γ [1]	phosphorylation level of SRC [2]	number of apoptotic cells (Hoechst 33,258) [3]	BBB-penetration capability [4]	effect on VEGF-induced rabbit corneal angiogenesis [5]
CC(C)C[C@H](NC(=O)[C@H](Cc1c[nH]c2ccccc12)NC(=O)[C@@H](NC(=O)[C@H](C)NC(=O)[C@H](CS)NC(=O)[C@H](CCCNC(=N)N)NC(=O)[C@H](CCCNC(=N)N)NC(=O)[C@H](CCCNC(=N)N)NC(=O)[C@H](CCC(N)=O)NC(=O)[C@H](CCCNC(=N)N)NC(=O)[C@H](CCCNC(=N)N)NC(=O)[C@H](CCCCN)NC(=O)[C@H](CCCCN)NC(=O)[C@@H](N)CCCNC(=N)N)[C@@H](C)O)C(=O)N1CCC[C@H]1C(=O)N1CCC[C@H]1C(=O)N[C@@H](CCCNC(=N)N)C(=O)O [TAT-AT7]	significantly inhibited the phosphorylation level	significantly inhibited the phosphorylation level	significantly increased compared to the control, AT7, TAT, and TAT+AT7 groups	stronger BBB-penetration capabilities	
ATWLPPR [AT7, ATWLPPR]					inhibitory effect on VEGF-induced rabbit corneal angiogenesis
